Source: ChEMBL document CHEMBL1201862, “PubChem BioAssay data set” (2004)
The source made the active and inactive calls.

Key:
Streptococcus = assay: GAS UMAA2166 growth inhibition – luminescence, BacTiterGlo, counter-screen for streptokinase expression inhibitor project, dose response (AID 1915); format: functional, organism-based;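 further: potency for reduction of bacterial viability or growth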
Aminopeptidase N = target: T1, Aminopeptidase N (Plasmodium falciparum FcB1/Columbia, UniProt O96935); assay: malaria alanyl aminopeptidase activity blockers – biochemical, fluorogenic H-Leu-NHMec substrate, 1536-well (AID 1445); parameters: species or system Plasmodium falciparum 3D7, 3D7
T1 sequence (O96935 whole entry): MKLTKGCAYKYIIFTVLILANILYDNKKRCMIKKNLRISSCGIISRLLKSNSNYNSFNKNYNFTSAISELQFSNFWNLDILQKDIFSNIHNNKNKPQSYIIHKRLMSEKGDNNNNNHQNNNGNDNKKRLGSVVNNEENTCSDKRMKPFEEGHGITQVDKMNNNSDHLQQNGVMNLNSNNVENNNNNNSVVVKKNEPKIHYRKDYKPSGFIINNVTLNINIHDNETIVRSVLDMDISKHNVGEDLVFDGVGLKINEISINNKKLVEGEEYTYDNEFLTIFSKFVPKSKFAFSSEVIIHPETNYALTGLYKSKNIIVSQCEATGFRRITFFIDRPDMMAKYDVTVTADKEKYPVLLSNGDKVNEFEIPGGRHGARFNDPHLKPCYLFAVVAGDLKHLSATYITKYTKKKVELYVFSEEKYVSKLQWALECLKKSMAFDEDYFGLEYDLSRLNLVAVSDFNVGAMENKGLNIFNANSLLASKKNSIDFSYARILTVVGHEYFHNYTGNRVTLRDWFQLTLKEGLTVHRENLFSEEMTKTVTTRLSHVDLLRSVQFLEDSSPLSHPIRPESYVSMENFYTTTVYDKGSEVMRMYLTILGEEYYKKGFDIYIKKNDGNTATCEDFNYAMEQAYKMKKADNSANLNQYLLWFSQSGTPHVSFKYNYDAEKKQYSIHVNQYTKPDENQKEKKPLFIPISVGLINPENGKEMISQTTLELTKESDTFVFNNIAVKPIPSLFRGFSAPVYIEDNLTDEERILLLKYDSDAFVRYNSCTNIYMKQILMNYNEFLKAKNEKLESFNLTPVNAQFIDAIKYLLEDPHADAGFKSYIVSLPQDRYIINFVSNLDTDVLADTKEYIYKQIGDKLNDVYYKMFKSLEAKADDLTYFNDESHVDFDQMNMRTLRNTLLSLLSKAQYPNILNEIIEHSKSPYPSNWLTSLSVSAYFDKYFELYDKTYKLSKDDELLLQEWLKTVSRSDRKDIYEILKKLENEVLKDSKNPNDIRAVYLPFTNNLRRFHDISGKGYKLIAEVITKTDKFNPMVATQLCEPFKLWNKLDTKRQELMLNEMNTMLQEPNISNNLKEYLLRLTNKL

Streptokinase A = target: T2, Streptokinase A (Streptococcus pyogenes serotype M1, UniProt P10520); assay: viability-normalized secreted streptokinase activity reduction – plasminogen activation absorbance, OD405, dose response (AID 1914); format: functional, Streptococcus pyogenes M1 GAS;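 further: secreted streptokinase activity via plasminogen activation per viability signal from cell pellet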
T2 sequence (P10520 whole entry): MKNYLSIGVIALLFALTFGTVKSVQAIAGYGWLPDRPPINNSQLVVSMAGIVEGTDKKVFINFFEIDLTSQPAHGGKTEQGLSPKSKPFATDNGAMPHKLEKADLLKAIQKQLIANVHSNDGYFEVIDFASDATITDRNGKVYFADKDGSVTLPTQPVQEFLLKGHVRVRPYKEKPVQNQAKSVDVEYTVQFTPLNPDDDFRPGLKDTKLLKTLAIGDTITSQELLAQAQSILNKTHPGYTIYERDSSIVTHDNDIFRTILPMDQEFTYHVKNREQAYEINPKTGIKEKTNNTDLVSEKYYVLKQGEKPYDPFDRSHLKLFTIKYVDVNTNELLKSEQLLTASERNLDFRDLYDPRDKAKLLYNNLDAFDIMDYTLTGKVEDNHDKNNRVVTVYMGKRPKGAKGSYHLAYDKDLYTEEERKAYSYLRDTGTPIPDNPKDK

Leucine aminopeptidase = target: T3, Leucine aminopeptidase (Plasmodium falciparum 3D7, UniProt Q8IL11); assay: P. falciparum M17LAP inhibitors, primary screen, biochemical, fluorogenic H-Leu-NHMec substrate, 1536-well (AID 1619); format: functional
T3 sequence (Q8IL11 whole entry): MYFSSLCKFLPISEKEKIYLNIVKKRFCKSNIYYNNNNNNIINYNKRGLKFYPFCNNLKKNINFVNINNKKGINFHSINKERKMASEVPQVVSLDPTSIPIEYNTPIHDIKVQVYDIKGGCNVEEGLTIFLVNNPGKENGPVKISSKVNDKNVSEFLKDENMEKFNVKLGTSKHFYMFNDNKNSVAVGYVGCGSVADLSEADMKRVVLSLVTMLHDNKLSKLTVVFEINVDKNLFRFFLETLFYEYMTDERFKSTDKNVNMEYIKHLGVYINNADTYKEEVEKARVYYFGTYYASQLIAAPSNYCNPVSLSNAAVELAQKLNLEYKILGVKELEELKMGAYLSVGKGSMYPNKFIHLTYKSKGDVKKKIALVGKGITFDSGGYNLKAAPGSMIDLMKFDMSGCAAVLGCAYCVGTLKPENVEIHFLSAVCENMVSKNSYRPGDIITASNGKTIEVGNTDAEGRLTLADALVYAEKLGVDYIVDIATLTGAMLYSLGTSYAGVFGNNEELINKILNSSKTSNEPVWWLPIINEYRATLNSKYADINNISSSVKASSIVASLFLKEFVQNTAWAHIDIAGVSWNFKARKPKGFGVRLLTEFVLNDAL

[1] = test system: Streptococcus sp. 'group A'; assay: Streptococcus pyogenes SK(-)GAS viability under kanamycin – luminescence, BacTiterGlo, confirmation, counter-screen for streptokinase expression inhibitor project, dose response (AID 1900); format: functional, organism-based
[2] = target: T4, Histone-lysine N-methyltransferase NSD2 (Homo sapiens, UniProt O96028); format: biochemical
T4 sequence (O96028 whole entry): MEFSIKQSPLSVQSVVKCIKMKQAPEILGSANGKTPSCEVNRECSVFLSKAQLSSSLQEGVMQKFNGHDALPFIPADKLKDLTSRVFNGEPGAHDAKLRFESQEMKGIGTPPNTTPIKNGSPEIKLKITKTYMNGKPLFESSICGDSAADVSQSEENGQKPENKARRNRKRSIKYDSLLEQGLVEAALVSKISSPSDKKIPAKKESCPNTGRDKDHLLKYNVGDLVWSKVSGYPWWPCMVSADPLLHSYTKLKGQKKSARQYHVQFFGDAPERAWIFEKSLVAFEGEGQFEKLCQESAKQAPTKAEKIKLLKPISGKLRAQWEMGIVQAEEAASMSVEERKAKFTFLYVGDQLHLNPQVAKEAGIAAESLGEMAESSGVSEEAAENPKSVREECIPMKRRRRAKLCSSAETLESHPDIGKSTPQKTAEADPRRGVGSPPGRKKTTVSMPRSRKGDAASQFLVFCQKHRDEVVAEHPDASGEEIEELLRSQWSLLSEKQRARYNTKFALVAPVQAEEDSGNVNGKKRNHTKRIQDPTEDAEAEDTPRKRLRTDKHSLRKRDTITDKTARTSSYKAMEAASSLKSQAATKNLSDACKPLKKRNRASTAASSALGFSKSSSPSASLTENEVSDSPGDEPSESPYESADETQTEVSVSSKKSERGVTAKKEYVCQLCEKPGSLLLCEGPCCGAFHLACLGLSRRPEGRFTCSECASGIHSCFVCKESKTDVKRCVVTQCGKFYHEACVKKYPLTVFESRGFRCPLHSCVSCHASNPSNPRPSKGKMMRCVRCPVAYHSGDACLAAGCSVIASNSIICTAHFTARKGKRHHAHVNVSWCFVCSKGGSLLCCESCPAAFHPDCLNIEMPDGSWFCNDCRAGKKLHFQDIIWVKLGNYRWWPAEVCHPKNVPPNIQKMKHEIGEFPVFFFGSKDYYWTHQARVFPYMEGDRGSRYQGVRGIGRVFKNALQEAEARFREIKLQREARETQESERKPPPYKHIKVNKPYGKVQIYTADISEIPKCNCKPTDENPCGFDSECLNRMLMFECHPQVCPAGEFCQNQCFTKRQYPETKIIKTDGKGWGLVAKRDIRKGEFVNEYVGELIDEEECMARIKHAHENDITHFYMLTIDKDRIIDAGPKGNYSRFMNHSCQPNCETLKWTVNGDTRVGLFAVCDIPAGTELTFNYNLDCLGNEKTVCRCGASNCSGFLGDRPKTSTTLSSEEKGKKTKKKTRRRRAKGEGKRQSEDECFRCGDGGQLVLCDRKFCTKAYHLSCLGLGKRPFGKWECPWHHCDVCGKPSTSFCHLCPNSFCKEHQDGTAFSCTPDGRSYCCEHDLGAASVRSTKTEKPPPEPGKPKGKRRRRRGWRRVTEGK

Large T antigen = Large T antigen (Simian virus 40, UniProt P03070); format: functional, Betapolyomavirus macacae;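 further: Confirmatory-stage PubChem screen for compounds that inhibit SV40 T antigen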
[3] = target: Peroxisome proliferator-activated receptor gamma/Nuclear receptor coactivator 1 (Homo sapiens, UniProt P37231); format: functional;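 further: agonist potency as compounds enhance coactivator SRC-1 recruitment to PPARgamma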
[4] = target: Peroxisome proliferator-activated receptor gamma/Nuclear receptor coactivator 2 (Homo sapiens, UniProt P37231); format: functional;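 further: agonist potency for raising coactivator recruitment to the receptor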
[5] = target: Peroxisome proliferator-activated receptor gamma/Nuclear receptor coactivator 3 (Homo sapiens, UniProt P37231); format: functional;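 further: agonist potency for raising coactivator recruitment to the receptor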

Chain of Large T antigen (P03070 whole entry): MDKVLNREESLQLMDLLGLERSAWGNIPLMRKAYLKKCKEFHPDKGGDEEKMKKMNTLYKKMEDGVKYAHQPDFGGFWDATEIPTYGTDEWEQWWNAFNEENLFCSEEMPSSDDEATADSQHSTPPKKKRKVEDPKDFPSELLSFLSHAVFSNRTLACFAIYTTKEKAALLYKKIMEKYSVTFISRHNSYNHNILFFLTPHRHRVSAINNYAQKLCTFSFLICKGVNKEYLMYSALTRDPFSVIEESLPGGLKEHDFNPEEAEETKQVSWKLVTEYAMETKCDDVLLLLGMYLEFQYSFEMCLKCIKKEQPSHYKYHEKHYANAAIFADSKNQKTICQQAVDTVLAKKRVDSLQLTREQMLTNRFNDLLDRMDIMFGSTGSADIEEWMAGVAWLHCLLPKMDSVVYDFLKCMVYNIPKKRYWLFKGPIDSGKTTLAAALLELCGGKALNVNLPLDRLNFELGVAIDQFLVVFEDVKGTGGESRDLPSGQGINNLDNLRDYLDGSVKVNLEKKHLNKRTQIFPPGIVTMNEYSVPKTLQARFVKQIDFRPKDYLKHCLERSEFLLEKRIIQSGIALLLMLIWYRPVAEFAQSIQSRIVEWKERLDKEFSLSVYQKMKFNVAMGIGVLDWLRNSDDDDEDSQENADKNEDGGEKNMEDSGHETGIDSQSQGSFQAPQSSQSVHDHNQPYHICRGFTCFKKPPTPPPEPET
Chain of Peroxisome proliferator-activated receptor gamma/Nuclear receptor coactivator 1 (P37231 whole entry): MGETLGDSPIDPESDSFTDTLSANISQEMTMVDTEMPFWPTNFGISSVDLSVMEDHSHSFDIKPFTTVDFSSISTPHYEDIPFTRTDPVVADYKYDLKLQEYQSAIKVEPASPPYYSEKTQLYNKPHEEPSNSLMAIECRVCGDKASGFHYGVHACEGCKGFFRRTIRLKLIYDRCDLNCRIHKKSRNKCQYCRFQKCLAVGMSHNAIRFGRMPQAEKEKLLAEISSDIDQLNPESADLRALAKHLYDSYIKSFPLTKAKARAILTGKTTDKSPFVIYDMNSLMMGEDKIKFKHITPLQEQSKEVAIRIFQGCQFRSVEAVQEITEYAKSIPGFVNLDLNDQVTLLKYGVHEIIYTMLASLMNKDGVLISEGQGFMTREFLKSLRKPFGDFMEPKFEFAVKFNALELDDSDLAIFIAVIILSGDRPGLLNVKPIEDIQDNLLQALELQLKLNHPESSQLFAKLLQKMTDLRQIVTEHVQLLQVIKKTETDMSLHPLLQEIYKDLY
Chain of Peroxisome proliferator-activated receptor gamma/Nuclear receptor coactivator 1 (Q15788 whole entry, further chain): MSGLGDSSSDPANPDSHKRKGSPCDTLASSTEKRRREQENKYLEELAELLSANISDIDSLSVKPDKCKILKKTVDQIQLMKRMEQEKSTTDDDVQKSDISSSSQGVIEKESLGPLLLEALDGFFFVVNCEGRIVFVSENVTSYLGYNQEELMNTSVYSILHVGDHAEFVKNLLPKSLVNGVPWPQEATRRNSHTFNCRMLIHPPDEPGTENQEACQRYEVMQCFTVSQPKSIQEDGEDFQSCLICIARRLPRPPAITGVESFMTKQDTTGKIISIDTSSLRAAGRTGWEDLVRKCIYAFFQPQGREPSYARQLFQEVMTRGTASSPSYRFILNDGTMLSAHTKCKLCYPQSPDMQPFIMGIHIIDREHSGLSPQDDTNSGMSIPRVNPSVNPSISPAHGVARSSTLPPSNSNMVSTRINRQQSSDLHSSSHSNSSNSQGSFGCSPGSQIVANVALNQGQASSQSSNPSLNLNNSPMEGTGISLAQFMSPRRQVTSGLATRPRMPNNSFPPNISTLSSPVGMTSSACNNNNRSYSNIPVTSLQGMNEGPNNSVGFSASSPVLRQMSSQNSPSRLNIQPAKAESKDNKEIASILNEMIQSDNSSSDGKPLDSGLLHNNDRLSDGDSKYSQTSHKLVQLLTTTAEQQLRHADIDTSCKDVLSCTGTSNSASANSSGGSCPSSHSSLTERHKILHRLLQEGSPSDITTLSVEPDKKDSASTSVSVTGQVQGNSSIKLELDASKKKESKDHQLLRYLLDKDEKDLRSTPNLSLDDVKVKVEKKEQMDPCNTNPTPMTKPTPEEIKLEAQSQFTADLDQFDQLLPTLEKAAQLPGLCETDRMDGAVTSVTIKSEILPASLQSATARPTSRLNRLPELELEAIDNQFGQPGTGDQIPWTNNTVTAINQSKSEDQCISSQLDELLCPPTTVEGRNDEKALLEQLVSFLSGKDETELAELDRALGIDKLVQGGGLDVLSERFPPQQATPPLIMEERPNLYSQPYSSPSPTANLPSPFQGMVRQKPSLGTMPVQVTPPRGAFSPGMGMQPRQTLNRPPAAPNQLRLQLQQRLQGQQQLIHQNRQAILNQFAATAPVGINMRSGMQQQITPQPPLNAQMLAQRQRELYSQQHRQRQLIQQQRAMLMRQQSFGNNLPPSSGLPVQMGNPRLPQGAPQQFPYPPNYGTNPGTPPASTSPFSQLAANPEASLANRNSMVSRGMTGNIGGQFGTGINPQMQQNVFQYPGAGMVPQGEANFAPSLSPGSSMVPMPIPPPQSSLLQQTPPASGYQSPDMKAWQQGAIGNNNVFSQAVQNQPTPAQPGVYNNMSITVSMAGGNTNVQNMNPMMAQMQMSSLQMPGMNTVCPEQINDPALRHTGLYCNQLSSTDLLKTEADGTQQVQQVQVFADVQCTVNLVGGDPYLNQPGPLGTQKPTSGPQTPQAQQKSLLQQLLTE
Chain of Peroxisome proliferator-activated receptor gamma/Nuclear receptor coactivator 2 (P37231 whole entry): as the sequence (P37231 whole entry) above
Chain of Peroxisome proliferator-activated receptor gamma/Nuclear receptor coactivator 2 (Q15596 whole entry, further chain): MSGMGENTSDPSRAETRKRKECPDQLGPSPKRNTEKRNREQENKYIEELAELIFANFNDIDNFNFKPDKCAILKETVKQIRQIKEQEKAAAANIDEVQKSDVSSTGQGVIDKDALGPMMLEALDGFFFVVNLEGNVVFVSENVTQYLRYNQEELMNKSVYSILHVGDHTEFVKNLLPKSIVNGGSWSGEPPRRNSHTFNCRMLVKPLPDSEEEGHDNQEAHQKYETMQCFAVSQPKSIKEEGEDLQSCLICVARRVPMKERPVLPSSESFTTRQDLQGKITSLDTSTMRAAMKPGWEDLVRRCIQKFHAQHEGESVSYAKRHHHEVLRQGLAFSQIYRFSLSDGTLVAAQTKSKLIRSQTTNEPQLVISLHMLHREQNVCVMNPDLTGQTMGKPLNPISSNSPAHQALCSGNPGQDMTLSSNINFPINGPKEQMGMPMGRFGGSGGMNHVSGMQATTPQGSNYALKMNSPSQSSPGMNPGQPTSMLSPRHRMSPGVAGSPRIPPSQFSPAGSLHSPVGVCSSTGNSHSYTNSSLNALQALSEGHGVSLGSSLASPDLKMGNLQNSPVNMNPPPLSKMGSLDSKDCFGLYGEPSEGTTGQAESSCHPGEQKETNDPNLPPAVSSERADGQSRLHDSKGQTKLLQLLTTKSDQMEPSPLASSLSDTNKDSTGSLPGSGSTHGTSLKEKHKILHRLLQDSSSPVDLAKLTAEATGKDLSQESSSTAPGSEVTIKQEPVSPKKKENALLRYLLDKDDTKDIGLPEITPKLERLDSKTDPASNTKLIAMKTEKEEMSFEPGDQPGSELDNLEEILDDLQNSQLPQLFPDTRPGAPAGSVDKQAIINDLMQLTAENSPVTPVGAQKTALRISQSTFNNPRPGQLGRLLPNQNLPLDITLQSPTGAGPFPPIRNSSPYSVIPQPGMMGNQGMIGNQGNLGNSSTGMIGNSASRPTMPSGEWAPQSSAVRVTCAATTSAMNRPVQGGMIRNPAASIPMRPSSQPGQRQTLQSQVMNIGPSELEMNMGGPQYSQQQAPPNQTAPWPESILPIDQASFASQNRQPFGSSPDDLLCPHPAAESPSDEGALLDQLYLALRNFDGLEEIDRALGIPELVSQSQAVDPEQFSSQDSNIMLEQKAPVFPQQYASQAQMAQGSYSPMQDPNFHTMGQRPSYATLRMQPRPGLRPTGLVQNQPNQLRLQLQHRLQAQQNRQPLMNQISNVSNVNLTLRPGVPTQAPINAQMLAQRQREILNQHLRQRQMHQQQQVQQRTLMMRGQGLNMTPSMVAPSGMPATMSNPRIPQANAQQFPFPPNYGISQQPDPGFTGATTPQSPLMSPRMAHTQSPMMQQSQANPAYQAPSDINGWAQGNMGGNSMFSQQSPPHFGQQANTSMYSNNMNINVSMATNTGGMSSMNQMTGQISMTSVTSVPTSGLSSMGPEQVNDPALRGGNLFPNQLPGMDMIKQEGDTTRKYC

SMILES | IC50 (Aminopeptidase N) | IC50 (Leucine aminopeptidase) | IC50 (Large T antigen) | also measured
Cc1csc(NC(=O)COCC(=O)O)c1-c1nc2ccccc2s1 | 17.1 µM (active) | 35.1 µM (active) |  | EC50 (Streptococcus): 22.3 µM (active); EC50 (Streptokinase A): > 150 µM (not active); EC50 [1]: 5.48 µM (active)
CSC1=NSC2=NC(=O)/C(=C\c3coc4ccccc4c3=O)C(=N)N12 |  |  | 67.1 µM (active) | AC50 [2]: 11.7 µM (active)
CCN(CC)CCCCN1c2ccccc2Sc2ccccc21 |  |  | 14.2 µM (active) | 
OC[C@H]1O[C@@H](Oc2cc(O)cc(/C=C/c3ccc(O)cc3)c2)[C@H](O)[C@@H](O)[C@@H]1O [PICEID] |  |  | 11.2 µM (active) | 
CCc1nnc(NS(=O)(=O)c2ccc(NC(=S)NC(=O)/C=C/c3cccs3)cc2)s1 | 79.4 µM (active) | 9.13 µM (active) |  | EC50 [3]: > 79.4 µM (not active); EC50 [4]: > 79.4 µM (not active); EC50 [5]: > 79.4 µM (not active)
CCCSc1nnc(NC(=O)c2nc(SC)ncc2Cl)s1 | 109 µM (active) | 34.2 µM (active) |  | 
